This is an account of results in ChEMBL document CHEMBL5724914, “Linking interpersonal differences in gut microbiota composition and drug biotransformation activity” (2024).

Series [1] in a line: The drug is tested on WLS-052 corresponding to human gut metagenome with ENA study accession number: PRJEB37062 and ENA sample accession number: ERS12561747 for biotransformation under anaerobic condition. The drug concentrations were measured over 9 timepoints collected between 0 and 24 hours of incubation by liquid-chromatography-coupled mass spectrometry (LC–MS). As to conditions: 2 µM.

For series [2] the following is noted: human gut metagenome, 24 h, 2 µM.
For series [3] the following is noted: human gut metagenome, 24 h, 2 µM. This is another data set of the same source.
Series [4] is described as follows: The drug is tested on Z-027 corresponding to metagenome with ENA study accession number: PRJEB37062 and ENA sample accession number: ERS12561826 for biotransformation under anaerobic condition. The drug concentrations were measured over 9 timepoints collected between 0 and 24 hours of incubation by liquid-chromatography-coupled mass spectrometry (LC–MS). The conditions noted are these: 2 µM.

Series [5] in a line: The drug is tested on Z-008 corresponding to metagenome with ENA study accession number: PRJEB37062 and ENA sample accession number: ERS12561808 for biotransformation under anaerobic condition. The drug concentrations were measured over 9 timepoints collected between 0 and 24 hours of incubation by liquid-chromatography-coupled mass spectrometry (LC–MS). The conditions noted are these: 2 µM.

For series [6] the following is noted: human gut metagenome, 24 h, 2 µM. This is another data set of the same source.
The nature of series [7]: The drug is tested on Z-002 corresponding to rabbit gut metagenome with ENA study accession number: PRJEB37062 and ENA sample accession number: ERS12561802 for biotransformation under anaerobic condition. The drug concentrations were measured over 9 timepoints collected between 0 and 24 hours of incubation by liquid-chromatography-coupled mass spectrometry (LC–MS). The conditions noted are these: 2 µM.

The conditions of series [8]: human gut metagenome, 24 h, 2 µM. The source holds these as a separate data set.
The conditions of series [9]: human gut metagenome, 24 h, 2 µM. This is another data set of the same source.
The nature of series [10]: The drug is tested on WLS-007 corresponding to human gut metagenome with ENA study accession number: PRJEB37062 and ENA sample accession number: ERS12561742 for biotransformation under anaerobic condition. The drug concentrations were measured over 9 timepoints collected between 0 and 24 hours of incubation by liquid-chromatography-coupled mass spectrometry (LC–MS). The conditions noted are these: 2 µM.

Series [11] is described as follows: The drug is tested on Z-023 corresponding to metagenome with ENA study accession number: PRJEB37062 and ENA sample accession number: ERS12561822 for biotransformation under anaerobic condition. The drug concentrations were measured over 9 timepoints collected between 0 and 24 hours of incubation by liquid-chromatography-coupled mass spectrometry (LC–MS). The conditions noted are these: 2 µM.

The conditions of series [12]: human gut metagenome, 24 h, 2 µM. This is another data set of the same source.
Series [13] in a line: The drug is tested on Z-010 corresponding to metagenome with ENA study accession number: PRJEB37062 and ENA sample accession number: ERS12561810 for biotransformation under anaerobic condition. The drug concentrations were measured over 9 timepoints collected between 0 and 24 hours of incubation by liquid-chromatography-coupled mass spectrometry (LC–MS). The conditions noted are these: 2 µM.

Series [14] can be described thus: The drug is tested on Z-003 corresponding to pig gut metagenome with ENA study accession number: PRJEB37062 and ENA sample accession number: ERS12561803 for biotransformation under anaerobic condition. The drug concentrations were measured over 9 timepoints collected between 0 and 24 hours of incubation by liquid-chromatography-coupled mass spectrometry (LC–MS). The conditions noted are these: 2 µM.

A short description of series [15]: The drug is tested on WLS-086 corresponding to human gut metagenome with ENA study accession number: PRJEB37062 and ENA sample accession number: ERS12561752 for biotransformation under anaerobic condition. The drug concentrations were measured over 9 timepoints collected between 0 and 24 hours of incubation by liquid-chromatography-coupled mass spectrometry (LC–MS). The conditions noted are these: 2 µM.

The nature of series [16]: The drug is tested on Z-014 corresponding to rat gut metagenome with ENA study accession number: PRJEB37062 and ENA sample accession number: ERS12561814 for biotransformation under anaerobic condition. The drug concentrations were measured over 9 timepoints collected between 0 and 24 hours of incubation by liquid-chromatography-coupled mass spectrometry (LC–MS). As to conditions: 2 µM.

For series [17] the following is noted: human gut metagenome, 24 h, 2 µM. This is another data set of the same source.
Series [18] in a line: The drug is tested on WLS-069 corresponding to human gut metagenome with ENA study accession number: PRJEB37062 and ENA sample accession number: ERS12561748 for biotransformation under anaerobic condition. The drug concentrations were measured over 9 timepoints collected between 0 and 24 hours of incubation by liquid-chromatography-coupled mass spectrometry (LC–MS). The conditions noted are these: 2 µM.

Series [19] in a line: The drug is tested on Z-019 corresponding to rat gut metagenome with ENA study accession number: PRJEB37062 and ENA sample accession number: ERS12561818 for biotransformation under anaerobic condition. The drug concentrations were measured over 9 timepoints collected between 0 and 24 hours of incubation by liquid-chromatography-coupled mass spectrometry (LC–MS). The conditions noted are these: 2 µM.

Series [20] in a line: The drug is tested on Z-020 corresponding to rabbit gut metagenome with ENA study accession number: PRJEB37062 and ENA sample accession number: ERS12561819 for biotransformation under anaerobic condition. The drug concentrations were measured over 9 timepoints collected between 0 and 24 hours of incubation by liquid-chromatography-coupled mass spectrometry (LC–MS). The conditions noted are these: 2 µM.
Further: call rule not given here.

Consider `CSc1ccc2c(c1)C(N1CCN(C)CC1)Cc1ccccc1S2.O=C(O)/C=C\C(=O)O` (centres undefined), for which the “Bacterial Biotransformation” value in [1] is listed as “Compound metabolized”; in [2], “Compound NOT metabolized”; in series [3], “Compound NOT metabolized”; in [4], “Compound metabolized”; in series [5] it was “Compound NOT metabolized”; in series [6] it was “Compound NOT metabolized”. For the same compound, the “Bacterial Biotransformation” value in series [7] was “Compound metabolized”; in series [8], “Compound NOT metabolized”; in series [9], “Compound NOT metabolized”; in series [10], “Compound NOT metabolized”; in [11] it was “Compound NOT metabolized”; in [12], “Compound NOT metabolized”. In addition, the “Bacterial Biotransformation” value in series [13] is “Compound metabolized”; in [14], “Compound metabolized”; in series [15], “Compound metabolized”; in series [16], “Compound NOT metabolized”; in series [17], “Compound NOT metabolized”.
In the case of `CCOC(=O)[C@H](CCc1ccccc1)N[C@@H](C)C(=O)N1CCC[C@H]1C(=O)O.O=C(O)/C=C\C(=O)O` [ENALAPRIL MALEATE], the “Bacterial Biotransformation” value in series [1], in series [2], in [3], in series [4], in [5] and in series [6] was “Compound NOT metabolized” each time. For the same compound, the “Bacterial Biotransformation” value in series [7] is reported as “Compound metabolized”; in [8], “Compound NOT metabolized”; in series [9] it was “Compound NOT metabolized”; in series [18], “Compound NOT metabolized”; in series [10], “Compound NOT metabolized”; in series [11], “Compound metabolized”. Further, the “Bacterial Biotransformation” value in series [12], in series [14], in [15] and in series [17] was “Compound NOT metabolized” throughout.
As to `CN1[C@@H]2CC[C@H]1C[C@@H](OC(=O)[C@H](CO)c1ccccc1)C2` [HYOSCYAMINE], the “Bacterial Biotransformation” value is on record as “Compound NOT metabolized” in series [3]; “Compound NOT metabolized” in [4]; “Compound NOT metabolized” in series [19]; “Compound metabolized” in [6]; “Compound metabolized” in [8]; “Compound metabolized” in [10]. Besides, the “Bacterial Biotransformation” value in series [11] is given as “Compound NOT metabolized”; in series [15] it was “Compound metabolized”; in [16], “Compound NOT metabolized”.
On to `CC(C)C[C@H]1C(=O)N2CCC[C@H]2[C@]2(O)O[C@](NC(=O)[C@@H]3C=C4c5cccc6[nH]c(Br)c(c56)C[C@H]4N(C)C3)(C(C)C)C(=O)N12.CS(=O)(=O)O` [BROMOCRIPTINE MESYLATE], for which the “Bacterial Biotransformation” value in series [1], in [2], in [3], in series [4], in series [19] and in series [5] was “Compound metabolized” in each case. For the same compound, the “Bacterial Biotransformation” value is reported as “Compound metabolized” in series [7]; “Compound metabolized” in series [8]; “Compound NOT metabolized” in series [9]; “Compound metabolized” in series [18]; “Compound metabolized” in series [10]; “Compound metabolized” in [11]. In addition, the “Bacterial Biotransformation” value in [12] is on record as “Compound metabolized”; in series [13], “Compound metabolized”; in series [14] it was “Compound metabolized”; in series [16], “Compound metabolized”; in series [17] it was “Compound NOT metabolized”.
Regarding `CN1CCC[C@@H]1CCO[C@](C)(c1ccccc1)c1ccc(Cl)cc1.O=C(O)/C=C/C(=O)O` [CLEMASTINE FUMARATE], the “Bacterial Biotransformation” value in series [1] is on record as “Compound NOT metabolized”; in series [2] it was “Compound NOT metabolized”; in series [3], “Compound metabolized”; in series [4] it was “Compound NOT metabolized”; in series [5], “Compound NOT metabolized”; in [6], “Compound NOT metabolized”. Besides, the “Bacterial Biotransformation” value in series [7] is listed as “Compound NOT metabolized”; in series [8], “Compound metabolized”; in series [9], “Compound metabolized”; in series [18], “Compound metabolized”; in series [10] it was “Compound NOT metabolized”; in [11], “Compound NOT metabolized”. The “Bacterial Biotransformation” value in series [12] was “Compound metabolized”; in [20], “Compound NOT metabolized”; in series [13], “Compound NOT metabolized”; in [14], “Compound NOT metabolized”; in series [15], “Compound metabolized”; in [16], “Compound NOT metabolized”. Also, the “Bacterial Biotransformation” value in series [17] was “Compound NOT metabolized”.
For `CC(C)(C)NC(=O)[C@H]1CC[C@H]2[C@@H]3CC[C@H]4NC(=O)C=C[C@]4(C)[C@H]3CC[C@]12C` [FINASTERIDE], the “Bacterial Biotransformation” value is “Compound metabolized” in series [1]; “Compound metabolized” in series [2]; “Compound metabolized” in series [3]; “Compound metabolized” in [4]; “Compound NOT metabolized” in series [5]; “Compound metabolized” in series [6]. In addition, the “Bacterial Biotransformation” value in series [7] is listed as “Compound metabolized”; in [8], “Compound metabolized”; in series [9] it was “Compound metabolized”; in series [18] it was “Compound metabolized”; in series [10], “Compound NOT metabolized”; in series [11] it was “Compound metabolized”. The “Bacterial Biotransformation” value in series [12] is on record as “Compound metabolized”; in [20], “Compound metabolized”; in series [13], “Compound metabolized”; in [14] it was “Compound metabolized”; in [15] it was “Compound metabolized”; in [16], “Compound NOT metabolized”. For the same compound, the “Bacterial Biotransformation” value in [17] is recorded as “Compound metabolized”.
For `Cc1ccc(NC(=O)c2ccc(CN3CCN(C)CC3)cc2)cc1Nc1nccc(-c2cccnc2)n1` [IMATINIB], the “Bacterial Biotransformation” value in series [4], in series [5], in series [7], in series [20], in series [13] and in series [14] was “Compound NOT metabolized” each time. In addition, the “Bacterial Biotransformation” value in series [16] is listed as “Compound NOT metabolized”.
